Measurements: US10988730B2, “Sand worm lyophilisate and uses thereof” (HEMARINA, priority 2013, dated 2021)

Legend:
Lactococcus lactis SB50 [1] = test: Flask culture of Lactococcus lactis SB50, optical density; type: cell-based
Experimental: (§1) Sample Preparation • i) Flask culture: dissolution of the powders at 200 g/l then filtration of the supernatant and addition to the flasks. • ii) Bioreactor culture: direct addition to the reactors in a proportion of 1 g/l of powder before autoclaving.
Culture Conditions • i) Flask (100 ml, 0.5 and 11) culture:
(§2) The strain used is a strain of Lactococcus lactis SB50.
The tests were carried out overnight (16-18 h) at 30° C. with shaking at 180 rpm.
The composition of the culture medium for the strain is the following: glucose (1%), maltose (0.1%), yeast extract (2%) and minerals.
The culture conditions are the following: filling to 10% useful volume; a positive control with addition of hemin (hemoglobin of bovine origin) at 10 ppm final concentration is used.
(§3) The HEMARINA samples (powders in solution) were added post-sterilization after centrifugation. • ii) Bioreactor (11 useful volume) culture:
(§4) The optical density (OD) at 600 nm is measured for each culture.

Lactococcus lactis SB50 [2] = test: Bioreactor culture of Lactococcus lactis SB50 (OD, dry weight, NH4OH volume, viability); type: cell-based
Experimental: as §1, §2, §3
The tests were carried out overnight (15-16 h) at 30° C.
The composition of the culture medium for the strain is identical to that of the flasks, with an addition of 0.01% antifoam.
The culture conditions are the following: filling to 60% useful volume, pO2 regulated at 20% or 80% and pH regulated at 6.
1 g/l of powder are added directly to the culture medium before autoclaving.
as §4

[3] = overnight (15-16 h), 30° C., 1 g/l of powder

hemin
active concentration (Lactococcus lactis SB50 [1]; equivalent to that of hemin): approximately 0.25 ppm
OD at 600 nm (Lactococcus lactis SB50 [1]; overnight (16-18 h), 30° C., 180 rpm, hemin 10 ppm final concentration): 4.5
Dry weight (Lactococcus lactis SB50 [2]; [3]): 3.4 g/L
Viability (Lactococcus lactis SB50 [2]; [3]): 5.03E+09 CFU/ml
OD at 600 nm (Lactococcus lactis SB50 [2]; overnight (15-16 h), 30° C., pH 6, 1 g/l of powder): 10.9
Volume NH4OH (corresponding to production of lactic acid) (Lactococcus lactis SB50 [2]; pH regulated at 6, 1 g/l of powder): 12.3 mL
